# What was measured:
# [1] = tested on: human lymphocytes; test: Lymphocyte Proliferation Assay; type: cell-based; conditions: Lymphocyte; PHA provoked proliferation of human lymphocytes; read-out: Lymphocytes IC50 ± SD
# Protocol: Human blood mononuclear cells (BMNC) from heparinized blood were isolated by metrizoate sodium-Ficoll density gradient centrifugation, washed 3 times in RPMI 1640 medium supplemented with 5% FCS and with 400 IU of penicillin plus 400 μg/ml streptomycin. BMNC were resuspended in the medium and cultured in triplicate, 0.63×10^5/ml and 160 μl per vial, in round-bottom microtiter plates with 20 μl of various concentrations of the test compound. Immediately prior to incubation, optimum concentrations of the mitogen phytohaemagglutinin (PHA) and the antigen purified protein derivative of tuberculin (PPD) were added to the cultures in a volume of 20 μl. Unstimulated control cultures were always included. Cultures were incubated for 3 or 7 days. The degree of lymphocyte proliferation was estimated by ^3H-thymidine (1 μCi per well) addition 24 h before the cells were harvested on glass fiber filters by means of a harvesting machine), and ^3H-thymidine incorporation was measured in a liquid scintillation counter. For each set of triplicate values, the median was recorded. Unstimulated cultures were always included as controls.
# [2] = tested on: Leishmania promastigotes; test: Leishmania promastigotes Assay; type: cell-based; conditions: Leishmania; promastigotes, 3H-thymidine uptake; read-out: Leishmania IC50 ± SD
# Protocol: A WHO reference vaccine strain of L. major originally isolated from a patient in Iran and a Kenyan strain of L. donovani (MHOM(/KE/85/NLB 274) were cultured in medium 199 containing 0.02 mg/ml gentamycin, 25 mM Hepes, 4 mM L-glutamine, and 20% heat inactivated fetal calf serum (FCS). Incubation was carried out at 26° C. Promastigotes were harvested on day 3 and 6 of the culture and used for the parasite growth inhibition.
# The effect of the test compounds on promastigotes was assessed by a method similar to the one described by Pearson et al., by incubating promastigotes (3×10^6/ml) at 26° C. for 2 hrs in the presence of a given compound or the medium alone in 96 wells flat bottom microtiter plates. Following incubation, 100 μCi of 3H-thymidine was added to each well and further incubated for 18 hrs. Promastigotes were then harvested on filter paper by means of a cell harvester, extensively washed with distilled water and counted in a scintillation counter. The promastigotes were also counted microscopically and their flagellar motility was assessed.
# [3] = tested on: Plasmodium falciparum; test: Plasmodium falciparum Assay; type: cell-based; conditions: Plasmodium falciparum; 3-H-hypoxanthine incorporation, 48 hours; read-out: Plasmodium IC50 ± SD
# Protocol: The experiments in which compounds were tested for their ability to inhibit parasite growth were performed by a modification of the method originally described by Jensen et al. (1982). 50 μl of parasitized erythrocytes (parasitemia approximately 1%) in a concentration of 5×10^8/ml and 50 μl of RPMI medium containing different concentrations of the test compound was added to each well of a 96 well flat-bottomed microtiter plate. The cultures were then incubated for 48 hours, 24 hours before termination of the culture adding 20 μl of 3-H-hypoxanthine (40 uCi/ml) was added to each well. The cultures were then harvested onto glass fiber filters using a Skatron cell harvester, and the incorporation of 3-H-hypoxanthine into the DNA of dividing parasites was determined by liquid scintillation spectrometry. Control cultures with uninfected erythrocytes and infected erythrocytes in RPMI medium without test compounds were always performed in parallel to the test cultures. In some experiments thin smears of parasite cultures were stained by Giemsa and examined under microscope (×1000). The test compounds described above, were diluted in RPMI medium immediately before use. In the experiments, chloroquine phosphate was used as a positive control as a drug known to inhibit parasite growth.
# [4] = tested on: TNF-α; test: TNF-α production by human peripheral blood mononuclear cells, culture supernatant (ELISA); type: cell-based
# Protocol: Cells: Peripheral blood mononuclear cells obtained from healthy individuals. The cells were separated by a conventional method lymphoprep) and suspended in RMPI 1640 containing 5% human serum.
# Stimulation of cytokine-release from human mononuclear cells: Human peripheral blood mononuclear cells from Danish donors were suspended in 1-10% (v/v) human serum in RPMI 1640 and adjusted to 2×10^6 cells per ml. 0.1 ml volumes were then dispensed into wells of 96-well microtiter plates. […] In some experiments cells were preincubated with drugs for 2 hrs before addition of stimulation antigens. The cultures were incubated overnight for TNF-α and IL-6 assays.
# Supernatants were collected and assayed for TNF-α, IL-1α and IL-6 by ELISA procedures (Jakobsen et al., 1993, Fomsgaard et al., 1988, Hansen et al., 1991) with the following modifications. ELISA Maxisorp plates (Nunc, Roskilde, Denmark) were coated for 24 hrs at 4 C with 100 μl per well of 2.5 μg/ml rabbit polyclonal IgG to human recombinant TNF, IL-1α or IL-6 in 100 mM sodiumhydrogencarbonate. Non-attached sites were blocked for 1 h by 200 μl per well of 2% human serum slbumin in PBS (1 h at 37° C.), and the wells were washed 4 times in 2.5% NaCl, 0.1% Tween 20 (Merck, Darmstadt, Germany). This washing procedure was done after each of the following incubating steps:
# 1) 100 μl culture supernatants made to 50% (v/v) in incubation buffer (4% (v/v) normal rabbit serum, DAKO code X902), 1% polyethylene glycol (MW 6,000), 2.5% NaCl, 0.1% Tween 20 in phosphate buffered saline (PBS) were incubated 2 hrs at 37° C., dilutions of native as well as recombinant cytokine standards in the same incubation buffer were asssayed in parallel with the tested supernatants,
# 2) 100 μl per well of biotinilated rabbit antibodies to recombinant TNF-α, IL-1α or IL-6 (1.5 μg/ml in 0.5% human serum albumin, 0.1% Tween 20 in PBS) were added at 37° for 2 hrs,
# 3) […] per well of a 1:1000 dilution of streptavidin-peroxidase (Amersham, UK), at room temperature for 30 min.
# Enzyme activities were quantitated after addition of 100 μl per well of 0.67 mg/ml 1,2-phenyldiamine hydrochloride (DAKO) dissolved in 100 mM citric acid-phosphate buffer, pH 5.0 containing 0.015% (v/v) H2O2. The reactions were stopped by adding 50 μl per well of 2.5 M H2SO4, and the optical densities are measured in an ELISA scanner at 490 nm against a test reference at 620 nm.
# Assay: The compounds were prepared as stock solution at a concentration of 1 mg/ml in medium containing 10% DMSO. The dilutions were made in medium. The cells were stimulated with either SPAG (a malaria antigen TNF-inducer) or bacterial LPS. The supernatant of cell cultures were assayed for TNF-α using a commercial ELISA kit.
# [5] = tested on: Helicobacter pylori; test: Helicobacter species Assay (agar plate, MIC); type: cell-based; conditions: for MIC: Helicobacter pylori, 20 strains of H. pylori, agar plate, 72 hours, read-out: MIC; for No. strains inhibited/No. strains tested: at the MIC of the same line
# Protocol: 20 strains of Helicobacter pylori were used in an agar plate assay. The compounds were incorporated in the agar plates at different concentrations as described in the examples and were then inoculated with different strains of Helicobacter pylori followed by incubation in a microaerophilic atmosphere at 37° C. for 72 hours. The number of colony-forming units (CFU) were counted after the incubation period. The MIC values were determined as the minimal concentration required to inhibit growth of the bacteria.
# (§1) Stock solutions were made at a concentration of 1 mg/ml by dissolving 1 mg of each compound in 100 μl DMSO (dimethylsulfoxide) followed by addition of 900 μl of heat-inactivated fetal claf serum (HFCS). These stock solutions were diluted with HFCS to make solutions having the following concentrations: 320 μg/ml, 160 μg/ml, 80 μg/ml, 40 μg/ml and 20 μg/ml. Dilution rows were made with 3 ml aliquots in vials containing the compounds in the following final test concentrations: 16 μg/ml, 8 μg/ml, 4 μg/ml, 2 μg/ml and 1 μg/ml. As control was used DMSO-HFCS containing an amount of DMSO equal to the amount of test compound in the solution with 320 μg/ml compound.
# Bacteria: 20 strains of Helicobacter pylori were used in an agar plate assay. The compounds were incorporated in the agar plates at different concentrations and then they were inoculated with different strains of Helicobacter pylori followed by incubation at microaerophilic atmosphere at 37° C. in 72 hours. The number of colony-forming units (CFU) were counted after the incubation period. The MIC values were determined as the minimal concentration required to inhibit growth of the bacteria.
# as §1, with “concentrations: 2560 μg/ml, 1280 μg/ml, 640 μg/ml,” for “concentrations:”, “160 µg/ml and” for “160 μg/ml,”, “80” for “80 μg/ml, 40 μg/ml and 20”, “concentrations: 128 μg/ml, 64 μg/ml, 32 μg/ml, 12” for “concentrations: 16”, “8” for “8 μg/ml, 4 μg/ml, 2”, “and 4” for “and 1”
# Bacteria: 20 strains of Helicobacter pylori were used in an agar plate assay. The same method as described above under Experiment A was employed and MIC values were determined.
# [6] = Experiment 1, LPS, 12.5 μg/ml, Control 1.17
# [7] = Experiment 1, LPS, 25 μg/ml, Control 1.17
# [8] = Experiment 1, LPS, 50 μg/ml, Control 1.17
# [9] = Experiment 1, LPS, 100 μg/ml, Control 1.17
# [10] = Experiment 1, SPAG, 12.5 μg/ml, Control 3.73
# [11] = Experiment 1, SPAG, 25 μg/ml, Control 3.73
# [12] = Experiment 1, SPAG, 50 μg/ml, Control 3.73
# [13] = Experiment 1, SPAG, 100 μg/ml, Control 3.73
smiles,measurement,setting,value
"COc1ccc(C(=O)/C=C/c2ccccc2F)c(OC)c1OC [2-F-2′,3′,4′-OCH3, 2-fluoro-2′,3′,4′-trimethoxychalcone]",melting point,,75 to 75.8 °C
same,IC50,[1],11 ± 1 µM
same,IC50,[2],15 ± 1 µM
"COc1cc(/C=C/C(=O)c2ccc(OC)c(OC)c2OC)cc(OC)c1 [2′,3′,4′,3,5-OCH3, 3,5,2′,3′,4′-pentamethoxychalcone]",melting point,,111.6 to 112.5 °C
same,IC50,[1],8.7 ± 0.5 µM
same,IC50,[2],8.3 ± 0.9 µM
"COc1cccc(C(=O)/C=C/c2ccc(OC)cc2OC)c1 [3′,2,4-OCH3, 2,4,3′-trimethoxychalcone]",melting point,,75.6 to 78.9 °C
same,IC50,[1],42 ± 2 µM
same,IC50,[2],18 ± 3 µM
"CN(C)c1ccc(/C=C/C(=O)c2ccc([N+](=O)[O-])cc2)cc1 [4′-NO2-4-N(CH3)2, 4-dimethylamino-4′-nitrochalcone]",melting point,,214 to 214.7 °C
"COc1cc(/C=C/C(=O)c2ccc(N(C)C)cc2)cc(OC)c1 [PH32, 4′-dimethylamino-3,5-dimethoxychalcone]",IC50,[3],17 µM
same,inhibitory effect on TNF-α production,[4],no or very little inhibitory effect
same,TNF-α production (OD values),[4]; [6],1.23 OD
same,TNF-α production (OD values),[4]; [7],1.55 OD
same,TNF-α production (OD values),[4]; [8],1.28 OD
same,TNF-α production (OD values),[4]; [9],0.94 OD
same,TNF-α production (OD values),[4]; [10],3.90 OD
same,TNF-α production (OD values),[4]; [11],2.26 OD
same,TNF-α production (OD values),[4]; [12],1.74 OD
same,TNF-α production (OD values),[4]; [13],0.75 OD
same,MIC,[5],> 128 mg/L
same,No. strains inhibited/No. strains tested,[5],0/20
"CCCCOc1cccc(C(=O)/C=C/c2ccc(OC)cc2OC)c1 [PH81, 3′-butoxy-2,4-dimethoxychalcone]",IC50,[3],16 µM
same,IC50,[1],65 ± 4 µM
same,IC50,[2],20 ± 3 µM
same,MIC,[5],16 mg/L
same,No. strains inhibited/No. strains tested,[5],5/20
"CCCCOc1ccccc1C(=O)/C=C/c1ccc(OC)cc1OC [PH142, 2′-butoxy-2,4-dimethoxychalcone]",TNF-α production (OD values),[4]; [6],0.26 OD
same,TNF-α production (OD values),[4]; [7],0.24 OD
same,TNF-α production (OD values),[4]; [8],0.18 OD
same,TNF-α production (OD values),[4]; [9],0.10 OD
same,TNF-α production (OD values),[4]; [10],0.02 OD
same,TNF-α production (OD values),[4]; [11],0.02 OD
same,TNF-α production (OD values),[4]; [12],0.02 OD
same,TNF-α production (OD values),[4]; [13],0.02 OD
same,TNF-α production (OD values),"[4]; Experiment 2, LPS, 1.562 μg/ml, Control 2.06",1.58 OD
same,TNF-α production (OD values),"[4]; Experiment 2, LPS, 3.125 μg/ml, Control 2.06",1.00 OD
same,TNF-α production (OD values),"[4]; Experiment 2, LPS, 6.25 μg/ml, Control 2.06",0.65 OD
same,TNF-α production (OD values),"[4]; Experiment 2, LPS, 12.5 μg/ml, Control 2.06",0.16 OD
same,TNF-α production (OD values),"[4]; Experiment 2, SPAG, 1.562 μg/ml, Control 2.28",1.86 OD
same,TNF-α production (OD values),"[4]; Experiment 2, SPAG, 3.125 μg/ml, Control 2.28",0.55 OD
same,TNF-α production (OD values),"[4]; Experiment 2, SPAG, 6.25 μg/ml, Control 2.28",0.04 OD
same,TNF-α production (OD values),"[4]; Experiment 2, SPAG, 12.5 μg/ml, Control 2.28",0.02 OD
same,MIC,[5],128 mg/L
same,No. strains inhibited/No. strains tested,[5],2/20
